Results from patent publication US11292801B2, “Calpain modulators and therapeutic uses thereof” (Blade Therapeutics, Inc., priority 2016, dated 2022).

Columns and labels:
Human Calpain 9/NS1 = target: T1, Human Calpain 9/NS1 (Homo sapiens, UniProt O14815); assay: Biochemical inhibition of calpain 9, continuous fluorescence (FRET substrate) assay; conditions: mean, read-out: Human Calpain 9/NS1 IC50 (nM)_MEAN
T1 sequence (O14815 1-690): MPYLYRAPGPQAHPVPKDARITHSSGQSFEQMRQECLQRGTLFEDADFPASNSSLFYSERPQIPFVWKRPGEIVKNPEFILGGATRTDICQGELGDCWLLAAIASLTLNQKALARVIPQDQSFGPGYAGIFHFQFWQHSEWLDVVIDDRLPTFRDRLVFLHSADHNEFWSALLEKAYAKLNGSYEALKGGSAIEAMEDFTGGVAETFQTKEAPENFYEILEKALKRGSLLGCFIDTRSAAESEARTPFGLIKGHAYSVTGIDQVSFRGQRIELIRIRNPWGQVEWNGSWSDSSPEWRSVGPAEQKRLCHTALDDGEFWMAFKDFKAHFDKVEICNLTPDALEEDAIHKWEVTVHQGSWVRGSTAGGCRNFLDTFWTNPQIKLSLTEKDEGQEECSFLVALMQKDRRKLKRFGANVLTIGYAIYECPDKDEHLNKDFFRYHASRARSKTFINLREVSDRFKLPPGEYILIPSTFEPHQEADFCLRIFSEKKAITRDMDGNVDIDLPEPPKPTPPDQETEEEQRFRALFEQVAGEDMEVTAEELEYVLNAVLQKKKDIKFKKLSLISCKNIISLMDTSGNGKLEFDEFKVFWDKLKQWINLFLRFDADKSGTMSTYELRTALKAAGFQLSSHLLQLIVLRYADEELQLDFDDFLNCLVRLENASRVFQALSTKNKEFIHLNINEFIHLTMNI
T1 sequence (P04632 1-268 partner): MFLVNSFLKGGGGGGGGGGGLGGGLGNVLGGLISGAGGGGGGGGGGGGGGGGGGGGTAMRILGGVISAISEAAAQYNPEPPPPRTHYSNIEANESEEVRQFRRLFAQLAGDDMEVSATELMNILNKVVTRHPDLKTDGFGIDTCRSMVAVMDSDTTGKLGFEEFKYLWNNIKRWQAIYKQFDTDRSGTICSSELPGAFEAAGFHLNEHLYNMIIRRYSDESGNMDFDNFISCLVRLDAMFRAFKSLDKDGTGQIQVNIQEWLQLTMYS
Procedure: (§1) Calpain 1, 2, and 9 activity and inhibition thereof are assessed by means of a continuous fluorescence assay. The SensoLyte 520 Calpain substrate (Anaspec Inc) is optimized for detecting calpain activity. This substrate contains a novel internally quenched 5-FAM/QXL™ 520 FRET pair. Calpains 1, 2, and 9 cleave the FRET substrate into two separate fragments resulting in an increase of 5-FAM fluorescence that is proportional to calpain activity.
(§2) Assays are typically setup in black 384-well plates using automated liquid handling as follows. Calpain assay base buffer typically contains 50 mM Tris, pH˜7.5, 100 mM NaCl and 1 mM DTT. Inhibitors are serially diluted in DMSO and used to setup 2× mixtures with calpains in the aforementioned buffer. After incubation at ambient temperature (25C), the reaction is initiated by adding a 2× mix of the fluorescent peptide substrate and CaCl2) (required for in-situ calpain activation) in the same buffer. Reaction progress curve data are typically collected for 10 min using excitation/emission wavelengths of 490 nm/520 nm on SpectraMax i3× or the FLIPR-Tetra plate readers (Molecular Devices Inc). Reaction rates were calculated from progress curve slopes typically over 1-5 min. Dose response curves (rate vs. log inhibitor concentration) were typically fit to a 4-parameter logistic function to extract IC50 values.

Human Calpain 1/NS1 = target: T2, Human Calpain 1/NS1 (Homo sapiens, UniProt P07384); assay: Biochemical inhibition of calpain 1, continuous fluorescence (FRET substrate) assay; conditions: mean, read-out: Human Calpain 1/NS1 IC50 (nM)_MEAN
T2 sequence (P07384 1-714): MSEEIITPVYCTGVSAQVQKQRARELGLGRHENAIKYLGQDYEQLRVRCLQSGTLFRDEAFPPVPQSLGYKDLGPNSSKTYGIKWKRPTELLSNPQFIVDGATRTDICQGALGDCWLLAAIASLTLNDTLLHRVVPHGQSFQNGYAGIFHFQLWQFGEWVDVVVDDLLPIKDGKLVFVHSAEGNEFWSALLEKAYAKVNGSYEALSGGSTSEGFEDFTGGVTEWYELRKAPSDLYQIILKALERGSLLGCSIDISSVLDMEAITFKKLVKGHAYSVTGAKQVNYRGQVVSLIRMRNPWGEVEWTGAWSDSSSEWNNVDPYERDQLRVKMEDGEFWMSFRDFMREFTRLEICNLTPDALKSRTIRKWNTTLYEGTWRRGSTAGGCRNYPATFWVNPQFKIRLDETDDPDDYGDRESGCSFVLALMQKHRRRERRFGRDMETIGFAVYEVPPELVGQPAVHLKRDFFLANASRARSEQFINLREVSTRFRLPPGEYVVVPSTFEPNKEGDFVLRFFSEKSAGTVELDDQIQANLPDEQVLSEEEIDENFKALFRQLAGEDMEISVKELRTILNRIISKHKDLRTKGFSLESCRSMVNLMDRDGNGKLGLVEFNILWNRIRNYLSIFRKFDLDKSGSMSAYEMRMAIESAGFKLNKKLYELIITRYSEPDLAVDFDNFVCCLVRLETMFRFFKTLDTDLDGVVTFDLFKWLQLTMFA
T2 sequence (P04632 1-268 partner): T1 sequence (P04632 1-268 partner)
Procedure: as §1, §2

Human Calpain 2/NS1 = target: T3, Human Calpain 2/NS1 (Homo sapiens, UniProt P17655); assay: Biochemical inhibition of calpain 2, continuous fluorescence (FRET substrate) assay; conditions: mean, read-out: Human Calpain 2/NS1 IC50 (nM)_MEAN
T3 sequence (P17655 1-700): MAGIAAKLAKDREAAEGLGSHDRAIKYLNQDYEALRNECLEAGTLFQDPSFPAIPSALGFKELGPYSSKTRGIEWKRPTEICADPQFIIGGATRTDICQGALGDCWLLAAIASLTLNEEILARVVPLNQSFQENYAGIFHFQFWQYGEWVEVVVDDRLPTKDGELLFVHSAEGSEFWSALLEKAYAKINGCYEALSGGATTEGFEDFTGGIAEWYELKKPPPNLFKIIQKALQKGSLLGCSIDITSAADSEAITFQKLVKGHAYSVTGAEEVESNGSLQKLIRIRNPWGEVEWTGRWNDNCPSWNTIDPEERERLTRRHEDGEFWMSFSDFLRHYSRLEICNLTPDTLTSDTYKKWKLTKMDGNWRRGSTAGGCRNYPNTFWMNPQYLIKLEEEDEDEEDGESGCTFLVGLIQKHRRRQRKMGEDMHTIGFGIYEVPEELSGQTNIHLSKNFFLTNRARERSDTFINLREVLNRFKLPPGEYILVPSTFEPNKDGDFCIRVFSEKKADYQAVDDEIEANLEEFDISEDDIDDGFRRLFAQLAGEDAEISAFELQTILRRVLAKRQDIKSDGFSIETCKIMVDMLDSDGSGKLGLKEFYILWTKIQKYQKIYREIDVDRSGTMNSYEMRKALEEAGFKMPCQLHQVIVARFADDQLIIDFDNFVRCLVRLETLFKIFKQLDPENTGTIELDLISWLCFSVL
T3 sequence (P04632 1-268 partner): T1 sequence (P04632 1-268 partner)
Procedure: as §1, §2

Row | SMILES | IC50 (Human Calpain 9/NS1) [nM] | IC50 (Human Calpain 1/NS1) [nM] | IC50 (Human Calpain 2/NS1) [nM]
1 | O=C[C@@H]1CC=CCOCCOc2ccccc2C(=O)N1 [Compound 18, (S)-11-Oxo-2,3,8,9,10,11-hexahydro-5h-benzo[e][1,4]dioxa[8]azacyclotridecine-9-carbaldehyde] | 3000 to 10000 | > 10000 | > 10000
2 | O=C[C@@H]1CCCCOCCOc2ccccc2C(=O)N1 [Compound 19, (S)-11-Oxo-2,3,6,7,8,9,10,11-octahydro-5h-benzo[e][1,4]dioxa[8]azacyclotridecine-9-carbaldehyde] | 3000 to 10000 | > 10000 | 3000 to 10000
3 | O=C[C@@H]1Cc2ccccc2CCCCCCOc2ccccc2C(=O)N1 [Compound 20, (S)-19-Oxo-6,7,8,9,10,11,16,17,18,19-decahydrodibenzo[b,h][1]oxa[5]aza-cyclopentadecine-17-carbaldehyde] | < 3000 | 3000 to 10000 | < 3000
4 | O=C[C@@H]1Cc2ccccc2CCCOCCCn2cncc2C(=O)N1 [Compound 22] | > 10000 | 3000 to 10000 | 3000 to 10000
5 | O=C[C@@H]1CCCCCCOc2ccccc2C(=O)N1 [Compound 24, (S)-10-Oxo-3,4,5,6,7,8,9,10-octahydro-2h-benzo[b][1]oxa[5]aza-cyclododecine-8-carbaldehyde] | < 3000 | > 10000 | < 3000
6 | O=C[C@@H]1CCCCCCCCCCc2ccccc2C(=O)N1 [Compound 28, (S)-1-Oxo-2,3,4,5,6,7,8,9,10,11,12,13-dodecahydro-1h-benzo[c][1]aza-cyclopentadecine-3-carbaldehyde] | < 3000 | < 3000 | < 3000
7 | O=C[C@@H]1CC=CCCOc2cccc(c2)-c2ccccc2C(=O)N1 [Compound 29, (S)-11-Oxo-3-oxa-10-aza-1(1,2),2(1,3)-dibenzenacycloundecaphan-6-ene-9-carbaldehyde] | < 3000 | < 3000 | < 3000
8 | O=C[C@@H]1CCCCCOc2cccc(c2)-c2ccccc2C(=O)N1 [Compound 30, (S)-11-Oxo-3-oxa-10-aza-1(1,2),2(1,3)-dibenzenacycloundecaphane-9-carbaldehyde] | < 3000 | < 3000 | < 3000
9 | O=C[C@@H]1Cc2ccccc2CCCOCc2ccccc2C(=O)N1 [Compound 31, (S)-17-Oxo-5,7,8,9,14,15,16,17-octahydrodibenzo[c,i][1]oxa[6]aza-cyclotridecine-15-carbaldehyde] | < 3000 | < 3000 | < 3000
10 | O=C[C@@H]1Cc2cccc(c2)CCCOCc2ccccc2C(=O)N1 [Compound 32, (S)-2-Oxo-10-oxa-3-aza-1(1,2),6(1,3)-dibenzena-cycloundecaphane-4-carbaldehyde] | < 3000 | < 3000 | < 3000
11 | O=C[C@@H]1Cc2cccc(c2)CCCCOc2cccc(c2)-c2ncccc2C(=O)N1 [Compound 35, (S)-3-Oxo-12-oxa-4-aza-2(2,3)-pyridina-1,7(1,3)-dibenzenacyclododecaphane-5-carbaldehyde] | < 3000 | < 3000 | < 3000

Now from value to compound:

Row | IC50 (Human Calpain 9/NS1) [nM] | IC50 (Human Calpain 1/NS1) [nM] | IC50 (Human Calpain 2/NS1) [nM] | SMILES
12 | 3000 to 10000 | > 10000 | 3000 to 10000 | O=C[C@@H]1C/C=C/CCCOc2ccccc2C(=O)N1 [Compound 21, (S)-10-Oxo-3,4,7,8,9,10-hexahydro-2h-benzo[b][1]oxa[5]aza-cyclododecine-8-carbaldehyde]
13 | < 3000 | < 3000 | < 3000 | O=C[C@@H]1C/C=C/CCCCCCCc2ccccc2C(=O)N1 [Compound 23, (S,E)-1-Oxo-2,3,4,7,8,9,10,11,12,13-decahydro-1h-benzo[c][1]aza-cyclopentadecine-3-carbaldehyde]
14 | > 10000 | > 10000 | > 10000 | CCNC(=O)C(=O)[C@@H]1CCCCCCCCc2ccccc2C(=O)N1 [Compound 25, (S)—N-ethyl-2-oxo-2-(1-oxo-2,3,4,5,6,7,8,9,10,11-decahydro-1h-benzo[c][1]aza-cyclotridecin-3-yl)acetamide]
15 | 3000 to 10000 | > 10000 | > 10000 | CCNC(=O)C(=O)[C@@H]1CC=CCCCCCc2ccccc2C(=O)N1 [Compound 26, (S)—N-ethyl-2-oxo-2-(1-oxo-2,3,4,7,8,9,10,11-octahydro-1h-benzo[c][1]azacyclotridecin-3-yl)acetamide]
16 | > 10000 | > 10000 | > 10000 | CCNC(=O)C(=O)[C@@H]1CCCCCCCCCc2ccccc2C(=O)N1 [Compound 27, (S)—N-ethyl-2-oxo-2-(1-oxo-1,2,3,4,5,6,7,8,9,10,11,12-dodecahydrobenzo[c][1]azacyclotetradecin-3-yl)acetamide]
17 | > 10000 | > 10000 | > 10000 | CCNC(=O)C(=O)[C@@H]1C/C=C/CCCCCCCc2ccccc2C(=O)N1 [Compound 33, (S,E)-N-ethyl-2-oxo-2-(1-oxo-2,3,4,7,8,9,10,11,12,13-decahydro-1h-benzo[c][1]azacyclopentadecin-3-yl)acetamide]
18 | > 10000 | > 10000 | > 10000 | CCNC(=O)C(=O)[C@@H]1CCCCCCCCCCc2ccccc2C(=O)N1 [Compound 34, (S)—N-ethyl-2-oxo-2-(1-oxo-2,3,4,5,6,7,8,9,10,11,12,13-dodecahydro-1h-benzo[c][1]azacyclopentadecin-3-yl)acetamide]
